# What was measured:
# [1] = molecular target: T1, Human recombinant integrin α5β1 (Homo sapiens, UniProt P05556+P08648); assay: Thermal shift assay (differential scanning fluorimetry), α5β1; assay type: binding; settings: α5β1, 20 μM Compound A
# T1 construct: purchased R&D Systems
# Protocol: Differential scanning fluorimetry was performed on a LightCycler 480 II, real-time PCR instrument (Roche Diagnostics). Human recombinant integrins from R&D Systems (αvβ1, αvβ3 and α5β1) were reconstituted at a concentration of […] in assay buffer (20 mM HEPES, pH=7.3, 100 mM NaCl, 1 mM MgCl2, 1 mM MnCl2) and diluted in assay buffer with Sypro orange (SIGMA) to a final concentration of 400 nM integrin and 5× Sypro orange. A volume of 4.9 μL of this mixture of protein and dye was transferred to a 384-well plate and 100 nL of DMSO or Compound A, dissolved in DMSO, were added using an Echo 555 instrument (Labcyte). The final concentration of Compound A in the assay was 20 μM. After mixing, the assay plate was sealed, spun at 1,000×g for two minutes, and subsequently heated from 25 to 99° C. over the course of 31 min in the LightCycler 480 II instrument. Fluorescence intensity was measured using excitation/emission wavelengths of 465 and 580 nm, respectively. Changes in protein thermal stability (ΔTm) upon compound binding were analyzed by using LightCycler 480 (software provided by the manufacturer).
# human podocytes = assay: Oris cell migration assay, PAN-induced podocyte motility, fibronectin coated plate; assay type: cell-based; settings: 48 h; for % migrated cells vs control cells: FN plate
# Protocol: The effects of Compound A on podocyte motility were evaluated using Oris cell migration assay kit in 96-well plates (coated with either vitronectin or fibronectin). The Oris™ Cell Migration Assay is designed with a unique cell seeding stopper or biocompatible gel, detection mask, and stopper tool. These unique plate designs generate highly reproducible results using a microscope, digital imaging system. 7 to 10-day differentiated human podocytes (100 ul of 50,000 cells/ml) were seeded in each well of the ORIS plate. After sitting at room temperature for about 15 minutes, the plate was placed into 37° C. incubator and podocytes were incubated with complete podocyte medium for 24 h. Stoppers from each well (keeping stoppers in 4 wells which were served as time zero control) were carefully removed, medium discarded, and fresh (10% FBS) podocyte medium added to each well. Podocytes were pretreated with Compound A (10 uM to 0.01 nM) for 2 h prior to puromycin animonucleoside (PAN, 30 ug/ml or 15 ug/ml) treatment. Podocytes were then treated with PAN in the presence or absence of Compound A at different concentrations (ranging from 10 uM to 0.01 nM) in 10% FBS medium for 48 h. Podocytes were then fixed with 4% paraformaldehyde in PBS for 30 minutes (adding 50 ul to each well). After discarding the fixative, podocytes were stained with Hoechst 33342 (stock […] working concentration at 5 uM) for 30 min. Podocytes were then washed with PBS three times. Finally, after adding 100 ul of PBS to each well, plate was sealed with a black cover and kept at 4° C. until image analysis. Images of podocyte motility were captured using Acumen eX3 (manufacturer TTP Labtech Ltd. address: Melbourn Science Park, Melbourn, Hertfordshire SG8 6EE, United Kingdom).
# Effect of Compound A (“A”) on human podocyte motility was examined using Oris cell migration assay in fibronectin (FN) coated-96-well plate.
# [2] = tested on: male obese ZSF1 rats (diabetic nephropathy model); assay: ZSF1 rat study: renal fibrosis score (histology); assay type: in vivo; settings: for renal fibrosis score (expressed as 0-5): obese ZSF1 rats, week 28
# Protocol: The effects of Compound A (“A”) on renal function, plasma triglycerides, plasma cholesterol, kidney collagen I, kidney collagen III, renal histology, glomerular filtration rate, fibrosis score, and mRNA gene expression (profibrotic genes and integrin β3) were evaluated in male obese ZSF1 rats (a hybrid F1 of Zucker diabetic fatty rat and spontaneously hypertensive heart failure rat; a diabetic nephropathy model) when administered as in-feed for 28 weeks. Sixty obese male ZSF1 rats were randomized to five groups: Obese control (n=12), Compound A 60 mpk (n=12), Compound A 200 mpk (n=12), Compound A 400 mpk (n=12), Enalapril 10 mpk (n=12); Eight lean male ZSF1 rats were used for normal control. Renal functional changes were monitored by blood and urine analysis following in-feed dosing for 28 weeks. Compound exposure was also monitored during the study.
# Upon completion of the study, animals were euthanized and blood and organs (kidney, heart, aorta, eyes, and lumber vertebrae (LV1-LV5) and left femur) were collected for histology assessment (including EM for the kidneys) or DEXA scan (lumber vertebrae and left femur). Kidney tissues were fixed in 10% formalin and then paraffin embedded. Tissue sections were stained with hematoxylin and eosin (H&E), periodic acid-Schiff (PAS), and Masson's trichrome and evaluated under light microscope. The severity of histopathologic changes in renal tubules, interstitium, vasculature, and glomeruli were graded on a 1 to 5 scale corresponding to minimal, mild, moderate, marked, and severe as described previously. Sections from both kidneys were examined. Collagen deposition in the kidney was graded on a 1 to 5 scale corresponding to minimal, mild, moderate, marked, and severe, based on the blue stained area size and intensity.
# T1 sequence (P08648 42-995 limits assumed): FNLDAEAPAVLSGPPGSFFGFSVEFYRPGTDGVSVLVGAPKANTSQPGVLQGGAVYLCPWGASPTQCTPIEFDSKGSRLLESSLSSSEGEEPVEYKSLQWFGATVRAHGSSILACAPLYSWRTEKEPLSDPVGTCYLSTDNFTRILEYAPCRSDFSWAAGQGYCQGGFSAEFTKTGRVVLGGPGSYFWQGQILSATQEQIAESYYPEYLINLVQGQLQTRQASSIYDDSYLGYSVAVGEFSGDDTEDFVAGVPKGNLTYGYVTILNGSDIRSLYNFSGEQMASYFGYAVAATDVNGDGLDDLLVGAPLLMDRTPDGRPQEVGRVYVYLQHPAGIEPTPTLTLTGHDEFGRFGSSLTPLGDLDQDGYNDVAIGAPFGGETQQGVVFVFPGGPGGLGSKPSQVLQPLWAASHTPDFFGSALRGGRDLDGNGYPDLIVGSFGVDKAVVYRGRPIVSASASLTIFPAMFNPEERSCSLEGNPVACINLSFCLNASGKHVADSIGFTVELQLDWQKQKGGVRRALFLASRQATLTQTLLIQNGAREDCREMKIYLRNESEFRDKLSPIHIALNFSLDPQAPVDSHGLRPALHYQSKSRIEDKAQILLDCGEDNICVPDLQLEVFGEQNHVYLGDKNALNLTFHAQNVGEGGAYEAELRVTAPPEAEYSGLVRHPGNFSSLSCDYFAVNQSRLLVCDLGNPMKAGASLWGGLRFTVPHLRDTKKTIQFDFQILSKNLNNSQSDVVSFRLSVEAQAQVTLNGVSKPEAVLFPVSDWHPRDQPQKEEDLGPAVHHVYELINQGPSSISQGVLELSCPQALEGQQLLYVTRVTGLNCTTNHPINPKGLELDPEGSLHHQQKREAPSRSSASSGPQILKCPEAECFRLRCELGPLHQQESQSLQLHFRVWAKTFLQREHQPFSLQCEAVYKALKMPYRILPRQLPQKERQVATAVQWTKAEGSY
# T1 sequence (P05556 21-728 limits assumed): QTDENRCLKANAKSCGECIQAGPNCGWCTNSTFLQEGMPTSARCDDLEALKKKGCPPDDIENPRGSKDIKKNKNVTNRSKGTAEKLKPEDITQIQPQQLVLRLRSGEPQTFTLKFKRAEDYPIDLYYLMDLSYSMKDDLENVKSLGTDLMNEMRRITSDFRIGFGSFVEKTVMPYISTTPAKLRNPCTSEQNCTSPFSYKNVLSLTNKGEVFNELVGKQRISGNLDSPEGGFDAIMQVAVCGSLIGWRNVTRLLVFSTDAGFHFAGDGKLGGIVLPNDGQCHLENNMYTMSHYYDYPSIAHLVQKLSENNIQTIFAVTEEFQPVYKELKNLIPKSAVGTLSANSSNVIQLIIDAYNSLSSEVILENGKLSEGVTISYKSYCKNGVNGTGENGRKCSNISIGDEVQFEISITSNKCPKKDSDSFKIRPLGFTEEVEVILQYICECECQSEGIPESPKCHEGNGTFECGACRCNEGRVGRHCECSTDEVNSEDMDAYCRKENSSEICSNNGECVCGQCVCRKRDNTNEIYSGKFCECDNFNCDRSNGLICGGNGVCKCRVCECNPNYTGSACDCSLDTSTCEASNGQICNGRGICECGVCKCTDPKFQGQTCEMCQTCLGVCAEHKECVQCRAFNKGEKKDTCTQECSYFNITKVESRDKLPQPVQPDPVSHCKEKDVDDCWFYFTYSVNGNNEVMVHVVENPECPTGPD
smiles,measurement,setting,value
"COc1ccc([C@H](CC(=O)O)N2CCN(CCCc3ccc4c(n3)NCCC4)C2=O)cn1 [Compound A, 3-{2-Oxo-3-[3-(5,6,7,8-tetrahydro-[1,8]naphthyridin-2-yl)-propyl]imidazolidin-1-yl}-3 (S)-(6-methoxy-pyridin-3-yl)-propionic acid]",ΔTm at 20 µM,[1]; first of two experiments,8.1 °C
same,ΔTm at 20 µM,[1]; second of two experiments,14 °C
same,IC50,"human podocytes; Homo sapiens, fibronectin coated plates, PAN 15 ug/ml, read-out: IC50, inhibition of puromycin-induced human podocyte motility",1.12 nM
same,% migrated cells vs control cells,human podocytes; PAN 15 ug/ml + A 0.01 nM,76.3%
same,% migrated cells vs control cells,human podocytes; PAN 15 ug/ml + A 0.0316 nM,80.3%
same,% migrated cells vs control cells,human podocytes; PAN 15 ug/ml + A 0.1 nM,84.9%
same,% migrated cells vs control cells,human podocytes; PAN 15 ug/ml + A 0.316 nM,83.6%
same,% migrated cells vs control cells,human podocytes; PAN 15 ug/ml + A 1 nM,72.9%
same,% migrated cells vs control cells,human podocytes; PAN 15 ug/ml + A 3.16 nM,64.8%
same,% migrated cells vs control cells,human podocytes; PAN 15 ug/ml + A 10 nM,54.1%
same,% migrated cells vs control cells,human podocytes; PAN 15 ug/ml + A 100 nM,35.8%
same,% migrated cells vs control cells,human podocytes; PAN 15 ug/ml + A 1 uM,36.3%
same,% migrated cells vs control cells,human podocytes; PAN 15 ug/ml + A 10 uM,33.1%
same,effect on renal fibrosis score vs Obese Vehicle,[2]; 400 mpk at week 28,significantly decreased
same,markers of renal fibrosis,[2]; ZSF-1 rats vs untreated obese ZSF-1 rats (summary),improvement in markers of renal fibrosis
same,renal fibrosis score (expressed as 0-5),[2]; 200 mpk in-feed,2.7 ± 0.1
same,renal fibrosis score (expressed as 0-5),[2]; 400 mpk in-feed,2.2 ± 0.1

# Source: patent US20180110762A1, “Compositions Methods for Treating Chronic Kidney Disease” (Merck Sharp & Dohme Corp, priority 2015, published 2018)
